“And” between values parts separate entries of the source, which are not always exact repeats. Equal values may be shown once.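 Compound exposure: 48 hours, 5 concentrations, 96-well plates. Here, GI50 denotes the concentration required for 50% inhibition of growth. TGI is the concentration that stops growth completely.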
Tests used:
Assay in all cases: NCI tumour cell line growth inhibition, 48 h
[1] = tested on: SR leukemia
[2] = tested on: P388 leukemia
[3] = tested on: DU-145 prostate
[4] = tested on: OVCAR-5 ovarian
[5] = tested on: DLD-1 colon
[6] = tested on: A549 NSCLC
[7] = tested on: HL-60(TB) leukemia
[8] = tested on: NCI-H460 lung
[9] = tested on: MDA-MB-435
[10] = tested on: M14 melanoma
[11] = tested on: PC-3 prostate
[12] = tested on: IGROV1 ovarian
[13] = tested on: HCC-2998 colon
[14] = tested on: MALME-3M melanoma
[15] = tested on: SK-MEL-28 melanoma
[16] = tested on: DMS 114 small cell lung
[17] = tested on: P388/ADR leukemia
[18] = tested on: MDA-N
[19] = tested on: HS 578T breast
[20] = tested on: COLO 205 colon
[21] = tested on: T-47D breast
[22] = tested on: RXF 393 renal
[23] = tested on: SNB-19 CNS
[24] = tested on: K-562 leukemia
[25] = tested on: OVCAR-4 ovarian
[26] = tested on: SNB-78 CNS
[27] = tested on: U251 CNS
[28] = tested on: 786-0 renal
[29] = tested on: A498 renal
[30] = tested on: NCI/ADR-RES ovarian
[31] = tested on: SF-268 CNS
[32] = tested on: BT-549 breast
[33] = tested on: TK-10 renal
[34] = tested on: HT29 colon
[35] = tested on: MCF7 breast
[36] = tested on: SN12K1 renal
[37] = tested on: HCT-116 colon
[38] = tested on: KM12 colon
[39] = tested on: M19-MEL melanoma
[40] = tested on: UO-31 renal
[41] = tested on: DMS 273 small cell lung
[42] = tested on: NCI-H522 lung
[43] = tested on: UACC-62 melanoma
[44] = tested on: NCI-H226 lung
[45] = tested on: OVCAR-8 ovarian
[46] = tested on: HOP-18 NSCLC
[47] = tested on: MDA-MB-231 breast
[48] = tested on: SK-OV-3 ovarian
[49] = tested on: SNB-75 CNS
[50] = tested on: SK-MEL-5 melanoma
[51] = tested on: OVCAR-3 ovarian
[52] = tested on: UACC-257 melanoma
[53] = tested on: SF-295 CNS
[54] = tested on: HCT-15 colon
[55] = tested on: LOX IMVI melanoma
[56] = tested on: CAKI-1 renal
[57] = tested on: HOP-92 NSCLC
[58] = tested on: RPMI-8226 leukemia
[59] = tested on: EKVX NSCLC
[60] = tested on: ACHN renal
[61] = tested on: SN12C renal
[62] = tested on: SF-539 CNS
[63] = tested on: KM20L2 colon
[64] = tested on: NCI-H23 lung
[65] = tested on: LXFL 529 NSCLC
[66] = tested on: SK-MEL-2 melanoma
[67] = tested on: HOP-62 NSCLC
[68] = tested on: MOLT-4 leukemia
[69] = tested on: XF 498 CNS
[70] = tested on: SW-620 colon
[71] = tested on: RXF-631 renal
[72] = tested on: CCRF-CEM leukemia

CNCCN=c1ccc2c3c1c(O)c1c(O)ccc(=O)c1c3[nH]n2CCNCCO
TGI [1]: 3250 nM | GI50 [2]: < 17.2 nM and 84.5 nM | TGI [2]: 44.8 nM and 246 nM | TGI [3]: 1270 nM and 942 nM | GI50 [4]: 900 nM | TGI [4]: 3360 nM and 11500 nM | TGI [5]: 11600 nM and 11900 nM and 19600 nM | GI50 [6]: 27 nM | TGI [6]: 4650 nM and 4570 nM | GI50 [7]: 49.6 nM and 314 nM | TGI [7]: 663 nM and 1220 nM | GI50 [8]: 0.851 nM | TGI [8]: 1210 nM | TGI [9]: 3320 nM | GI50 [10]: 397 nM and 1190 nM | TGI [10]: 3410 nM and 10400 nM | GI50 [11]: 410 nM | TGI [11]: 6660 nM and 4900 nM | GI50 [12]: 1250 nM | TGI [12]: 11200 nM and 12900 nM | TGI [13]: 1610 nM and 8620 nM | GI50 [14]: 696 nM and 511 nM | GI50 [15]: 1500 nM | TGI [15]: 6870 nM | TGI [16]: 2910 nM and 834 nM | GI50 [17]: 751 nM | TGI [17]: 16300 nM and 32900 nM | TGI [18]: 2700 nM | TGI [19]: 1410 nM | GI50 [20]: 398 nM and 560 nM | TGI [20]: 4410 nM and 4590 nM | TGI [21]: 5350 nM | GI50 [22]: 744 nM and 173 nM | TGI [22]: 2540 nM and 1250 nM | GI50 [23]: 30.8 nM and 110 nM | GI50 [24]: 224 nM and 296 nM | TGI [24]: 3660 nM and 10900 nM | GI50 [25]: 861 nM and 923 nM | TGI [25]: 3260 nM and 5540 nM | TGI [26]: 10500 nM | TGI [27]: 287 nM | GI50 [28]: 50 nM | TGI [28]: 1790 nM and 677 nM | GI50 [29]: 102 nM and 405 nM | TGI [29]: 1140 nM and 5150 nM | TGI [30]: 46900 nM and 404000 nM and 239000 nM | TGI [31]: 2570 nM | TGI [32]: 2430 nM | GI50 [33]: 1140 nM and 5320 nM | TGI [33]: 7540 nM and 18600 nM | GI50 [34]: 587 nM | TGI [34]: 3710 nM and 9040 nM | GI50 [35]: 56.8 nM and 50 nM | TGI [35]: 7510 nM and 5200 nM | GI50 [36]: 50 nM | TGI [36]: 2540 nM and 598 nM | GI50 [37]: 207 nM | TGI [37]: 4900 nM and 5370 nM | GI50 [38]: 918 nM | TGI [38]: 4230 nM and 15100 nM | GI50 [39]: 147 nM and 179 nM | TGI [39]: 2720 nM and 1130 nM | GI50 [40]: 918 nM and 3470 nM | TGI [40]: 13000 nM and 62200 nM | GI50 [41]: 53 nM and 97.8 nM | TGI [41]: 1590 nM and 336 nM | GI50 [42]: 194 nM and 627 nM | GI50 [43]: 74.1 nM | TGI [43]: 3070 nM | GI50 [44]: 0.924 nM | TGI [44]: 336 nM | GI50 [45]: 174 nM and 366 nM | TGI [45]: 6050 nM and 5420 nM | TGI [46]: 2180 nM and 7730 nM and 6040 nM | GI50 [47]: 970 nM and 504 nM | TGI [47]: 5450 nM and 9630 nM | GI50 [48]: 137 nM and 162 nM | TGI [48]: 3250 nM and 5720 nM | GI50 [49]: 29.4 nM and 77.2 nM | TGI [49]: 387 nM and 149 nM | GI50 [50]: 84.7 nM and 139 nM | TGI [50]: 962 nM and 2060 nM | GI50 [51]: 1160 nM | TGI [51]: 3990 nM and 5120 nM | TGI [52]: 7000 nM | GI50 [53]: 36.9 nM | TGI [53]: 794 nM and 811 nM | GI50 [54]: 1520 nM | TGI [54]: 24800 nM and 41200 nM | GI50 [55]: 94.9 nM and 395 nM | GI50 [56]: 54 nM | TGI [56]: 992 nM and 2280 nM | GI50 [57]: 199 nM | TGI [57]: 2640 nM and 1370 nM | GI50 [58]: 129 nM and 294 nM | TGI [58]: 5040 nM and 12400 nM | GI50 [59]: 1840 nM and 889 nM | TGI [59]: 10500 nM and 3500 nM | GI50 [60]: 84.4 nM and 77.5 nM | TGI [60]: 708 nM and 259 nM | GI50 [61]: 85.9 nM | TGI [61]: 2410 nM and 2390 nM | GI50 [62]: 57.6 nM | TGI [62]: 1320 nM | TGI [63]: 6700 nM and 12200 nM and 1510 nM | TGI [64]: 2750 nM

COc1ccc2c(c1)OC[C@@H]1c3cc(O)c(OCc4ccccc4)cc3O[C@H]21
TGI [4]: > 100000 nM | TGI [5]: > 100000 nM | TGI [6]: 97100 nM | TGI [65]: 74900 nM | TGI [66]: 60800 nM | TGI [7]: 52000 nM | TGI [8]: 35700 nM | TGI [10]: 82600 nM | TGI [12]: > 100000 nM | TGI [13]: > 100000 nM | TGI [67]: > 100000 nM | TGI [14]: 85700 nM | TGI [15]: > 100000 nM | TGI [16]: 82600 nM | TGI [20]: 74100 nM | TGI [22]: 93200 nM | TGI [23]: > 100000 nM | TGI [24]: > 100000 nM | TGI [25]: 60300 nM | TGI [68]: > 100000 nM | TGI [26]: 92300 nM | TGI [27]: 68400 nM | TGI [28]: > 100000 nM | TGI [29]: > 100000 nM | TGI [31]: > 100000 nM | TGI [33]: 96400 nM | TGI [34]: > 100000 nM | TGI [69]: 68400 nM | TGI [70]: 96200 nM | TGI [37]: > 100000 nM | TGI [38]: > 100000 nM | TGI [39]: 95500 nM | TGI [40]: 75900 nM | TGI [41]: > 100000 nM | TGI [42]: 51900 nM | TGI [43]: > 100000 nM | TGI [44]: 95700 nM | TGI [45]: > 100000 nM | TGI [46]: > 100000 nM | TGI [48]: > 100000 nM | TGI [49]: 65400 nM | TGI [50]: 26500 nM | TGI [71]: > 100000 nM | TGI [51]: > 100000 nM | TGI [52]: 51400 nM | TGI [72]: > 100000 nM | TGI [53]: > 100000 nM | TGI [54]: > 100000 nM | TGI [55]: > 100000 nM | TGI [56]: 84800 nM | TGI [57]: 61700 nM | TGI [58]: 49000 nM | TGI [59]: 60100 nM | TGI [60]: > 100000 nM | TGI [62]: > 100000 nM | TGI [63]: 97200 nM | TGI [64]: 67900 nM
